Laboratory results taken from US10815244B2, “Isoidide derivatives and methods of making and using same” (Rutgers, the State University of New Jersey, priority 2015, dated 2020).

target: EGFR kinase (Homo sapiens (Human), UniProt P00533); assay: EGFR kinase activity, luminescent ATP/ADP detection assay; format: biochemical; conditions: purified EGFR kinase, 10 min incubation, luminescence ADP detection
Description: Example RR: EGFR as a Drug Target Assay Conditions
The IC50s of the compounds on EGFR activity were determined using the Luminescent ATP/ADP detection assay system. Briefly, the assay method measures ADP formed from EGFR kinase activity using luminescence derived from ATP-Luciferase detection system. Purified EGFR kinase was incubated with different concentrations of test compound in the kinase reaction buffer for 10 min. The reaction was stopped by depleting the unused ATP in the kinase reaction buffer using the depletion buffer for 40 min. The levels of ADP generated during the kinase reaction was detected by measuring the luminescence using the Luciferase system.

Sequence of EGFR kinase (P00533 25-1210): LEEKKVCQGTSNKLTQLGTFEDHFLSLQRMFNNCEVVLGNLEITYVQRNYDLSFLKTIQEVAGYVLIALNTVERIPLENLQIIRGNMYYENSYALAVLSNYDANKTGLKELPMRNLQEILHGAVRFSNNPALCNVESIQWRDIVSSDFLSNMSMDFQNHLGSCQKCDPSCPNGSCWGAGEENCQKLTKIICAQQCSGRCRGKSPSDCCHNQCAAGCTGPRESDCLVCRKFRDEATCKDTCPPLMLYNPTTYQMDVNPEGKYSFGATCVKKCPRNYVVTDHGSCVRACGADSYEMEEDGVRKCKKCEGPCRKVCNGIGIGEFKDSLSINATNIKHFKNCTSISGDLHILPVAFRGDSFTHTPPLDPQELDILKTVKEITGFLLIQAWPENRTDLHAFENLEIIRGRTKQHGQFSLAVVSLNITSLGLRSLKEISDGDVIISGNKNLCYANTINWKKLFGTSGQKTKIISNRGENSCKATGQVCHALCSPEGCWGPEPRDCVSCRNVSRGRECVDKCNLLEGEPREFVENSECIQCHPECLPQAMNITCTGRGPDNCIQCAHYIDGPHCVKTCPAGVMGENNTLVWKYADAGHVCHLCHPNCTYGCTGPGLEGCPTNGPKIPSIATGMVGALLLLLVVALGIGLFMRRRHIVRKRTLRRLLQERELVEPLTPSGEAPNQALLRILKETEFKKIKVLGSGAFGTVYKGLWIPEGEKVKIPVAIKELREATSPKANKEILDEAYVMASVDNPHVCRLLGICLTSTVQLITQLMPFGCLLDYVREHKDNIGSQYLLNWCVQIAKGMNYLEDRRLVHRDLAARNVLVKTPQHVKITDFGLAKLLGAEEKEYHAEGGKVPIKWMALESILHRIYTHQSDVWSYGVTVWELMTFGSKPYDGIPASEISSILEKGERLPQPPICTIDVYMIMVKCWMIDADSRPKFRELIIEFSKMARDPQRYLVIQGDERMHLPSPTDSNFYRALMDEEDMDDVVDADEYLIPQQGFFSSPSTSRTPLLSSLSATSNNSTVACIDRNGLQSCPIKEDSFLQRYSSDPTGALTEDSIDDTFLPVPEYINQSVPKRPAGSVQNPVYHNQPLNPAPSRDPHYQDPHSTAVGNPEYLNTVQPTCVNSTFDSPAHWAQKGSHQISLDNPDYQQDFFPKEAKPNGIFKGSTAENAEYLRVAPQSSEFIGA

SMILES | EGFR IC50 | IC50 [nM]
O[C@H]1CO[C@H]2[C@@H]1OC[C@@H]2Oc1ccc(Nc2ccnc(Nc3ccc(O[C@H]4CO[C@H]5[C@@H]4OC[C@@H]5O)c(Cl)c3)n2)cc1Cl [Example W, (3S,3aR,6S,6aR)-6-[4-[[2-[4-[[(3S,3aR,6S,6aR)-3-hydroxy-2,3,3a,5,6,6a-hexahydrofuro[3,2-b]furan-6-yl]oxy]-3-chloro-anilino]pyrimidin-4-yl]amino]-2-chloro-phenoxy]-2,3,3a,5,6,6a-hexahydrofuro[3,2-b]furan-3-ol] | Inactive | 
CSc1nccc(Nc2ccc(O[C@H]3CO[C@H]4[C@@H]3OC[C@@H]4O)c(Cl)c2)n1 [Example V, (3S,3aR,6S,6aR)-6-[2-chloro-4-[(2-methylsulfanylpyrimidin-4-yl)amino]phenoxy]-2,3,3a,5,6,6a-hexahydrofuro[3,2-b]furan-3-ol] | Inactive | 
CC(=O)O[C@H]1CO[C@H]2[C@@H]1OC[C@@H]2Oc1ccnc(NCc2ccc(F)cc2)n1 [Example II, [(3S,3aR,6S,6aR)-3-[2-[(4-fluorophenyl)methylamino]pyrimidin-4-yl]oxy-2,3,3a,5,6,6a-hexahydrofuro[3,2-b]furan-6-yl] acetate] | Inactive | 
CSc1ncc(Br)c(C(=O)O[C@H]2CO[C@H]3[C@@H]2OC[C@@H]3O)n1 [Example KK, [(3S,3aR,6S,6aR)-3-hydroxy-2,3,3a,5,6,6a-hexahydrofuro[3,2-b]furan-6-yl] 5-bromo-2-methylsulfanyl-pyrimidine-4-carboxylate] | Inactive | 
CC(=O)O[C@H]1CO[C@H]2[C@@H]1OC[C@@H]2Oc1ccnc(NC2CCN(S(C)(=O)=O)CC2)n1 [Example FF, [(3S,3aR,6S,6aR)-3-[2-[(1-methylsulfonyl-4-piperidyl)amino]pyrimidin-4-yl]oxy-2,3,3a,5,6,6a-hexahydrofuro[3,2-b]furan-6-yl] acetate] | Inactive | 
CC(=O)O[C@H]1CO[C@H]2[C@@H]1OC[C@@H]2Oc1ccnc(NC2CCN(C(=O)C(C)(C)C)CC2)n1 [Example HH, [(3S,3aR,6S,6aR)-3-[2-[[1-(2,2-dimethylpropanoyl)-4-piperidyl]amino]pyrimidin-4-yl]oxy-2,3,3a,5,6,6a-hexahydrofuro[3,2-b]furan-6-yl] acetate] | Inactive | 

Now from value to compound:

EGFR IC50 | IC50 [nM] | SMILES
 | > 100 | COc1cc2ncnc(Nc3ccc(O[C@H]4CO[C@H]5[C@@H]4OC[C@@H]5O)c(Cl)c3)c2cc1OC [Example T, (3S,3aR,6S,6aR)-6-[2-chloro-4-[(6,7-dimethoxyquinazolin-4-yl)amino]phenoxy]-2,3,3a,5,6,6a-hexahydrofuro[3,2-b]furan-3-ol]
 | > 500 | COc1cc2ncnc(Nc3ccc(O[C@H]4CO[C@H]5[C@@H]4OC[C@@H]5OC(C)=O)c(Cl)c3)c2cc1OC [Example BB, [(3S,3aR,6S,6aR)-3-[2-chloro-4-[(6,7-dimethoxyquinazolin-4-yl)amino]phenoxy]-2,3,3a,5,6,6a-hexahydrofuro[3,2-b]furan-6-yl] acetate]
 | > 1000 | CC(=O)O[C@H]1CO[C@H]2[C@@H]1OC[C@@H]2Oc1ccc(Nc2ncnc3ccsc23)cc1 [Example Y, [(3S,3aR,6S,6aR)-3-[4-(thieno[3,2-d]pyrimidin-4-ylamino)phenoxy]-2,3,3a,5,6,6a-hexahydrofuro[3,2-b]furan-6-yl] acetate]
 | > 500 | O=C(O[C@H]1CO[C@H]2[C@@H]1OC[C@@H]2Oc1ccc(Nc2ncnc3ccsc23)cc1Cl)c1ccccc1 [Example EE, [(3S,3aR,6S,6aR)-3-[2-chloro-4-(thieno[3,2-d]pyrimidin-4-ylamino)phenoxy]-2,3,3a,5,6,6a-hexahydrofuro[3,2-b]furan-6-yl] benzoate]
 | > 500 | COc1cc2ncnc(Nc3ccc(O[C@H]4CO[C@H]5[C@@H]4OC[C@@H]5OC(C)=O)cc3)c2cc1OC [Example X, [(3S,3aR,6S,6aR)-3-[4-[(6,7-dimethoxyquinazolin-4-yl)amino]phenoxy]-2,3,3a,5,6,6a-hexahydrofuro[3,2-b]furan-6-yl] acetate]
 | > 100 | COc1cc2ncnc(Nc3ccc(O[C@H]4CO[C@H]5[C@@H]4OC[C@@H]5OC(=O)c4ccccc4)c(Cl)c3)c2cc1OC [Example DD, [(3S,3aR,6S,6aR)-3-[2-chloro-4-[(6,7-dimethoxyquinazolin-4-yl)amino]phenoxy]-2,3,3a,5,6,6a-hexahydrofuro[3,2-b]furan-6-yl] benzoate]
 | > 500 | CC(=O)O[C@H]1CO[C@H]2[C@@H]1OC[C@@H]2Oc1ccc(Nc2ncnc3ccsc23)cc1Cl [Example CC, [(3S,3aR,6S,6aR)-3-[2-chloro-4-(thieno[3,2-d]pyrimidin-4-ylamino)phenoxy]-2,3,3a,5,6,6a-hexahydrofuro[3,2-b]furan-6-yl] acetate]
 | > 100 | COc1cc2ncnc(Nc3ccc(O[C@H]4CO[C@H]5[C@@H]4OC[C@@H]5OCc4ccccc4)c(Cl)c3)c2cc1OC [Example AA, N-[4-[[(3S,3aR,6S,6aR)-3-benzyloxy-2,3,3a,5,6,6a-hexahydrofuro[3,2-b]furan-6-yl]oxy]-3-chloro-phenyl]-6,7-dimethoxy-quinazolin-4-amine]
